Experimental data as given in patent US20250236617A1, “BICYCLIC TETRAHYDROTHIAZEPINE DERIVATIVES” (Hoffmann-La Roche Inc., priority 2022, published 2025).

Assays:
[1] = test system: primary human T-cells; experiment: T-cell proliferation assay (CellTiter-Glo); assay type: cell-based; conditions: CD3 condition; for EC50: Homo sapiens, T-cell, 120 h, proliferation after 5 days, CellTiter-Glo, read-out: Tcell Proliferation CD3 EC50; for Emax proliferation (% activation): 5 days, 20 μM reference compound A1 = 100%
Experimental: For coating of plates, PBS++ only or PBS++ with CD3 antibody (concentration depending on donor and determined by CD3 titrations) is added 100 μl/well to Poly-D Lysine coated 96-well plates. Plates are sealed and incubated at room temperature for 3 hours on a table-top rocking platform. After incubation, plates are washed once with PBS−− and filled with 40 μl/well culture medium only. Compounds are then added (see next section) to medium only plates. After 3 hours of culturing the T-cells, cells are filtered through a cell strainer (Miltenyi Biotech, #130-041-407), counted again and concentration is adjusted to 1.25 Mio/ml.
Cells are then seeded 80 μl/well to the 40 μl/well including dispensed compounds according to plate layout. By adding cells, compounds are further diluted 1:3, and resulting in 100 k cells/120 μl/well. After 48 hours 40 μl of supernatant is collected carefully from the top while not disturbing the cells. Cells are assessed for proliferation 5 days later by measuring […] using CellTiterGlo (Promega).
Compounds were added in a 5 or 6 pt dose response with the Tecan D300e Digital Dispenser, all conditions 3 times more concentrated than the end-concentration, since cells are added afterwards (80 μl cells to 40 μl prepared medium with treatment). […] The positive control was the reference compound A1 that was added in a dose response as well, additionally to 3 wells of only 20 μM representing the positive stimulator control. All wells were normalized with DMSO to a final concentration of 0.6% (0.2% end-concentration).
After 5 days, for detection of ATP which is directly proportional to the number of cells present per well, the CellTiter-Glo® 2.0 Reagent is used. After visual control for toxicity or precipitations of the tested compounds, the plates are equilibrated to room temperature for 45 minutes. CellTiter-Glo® 2.0 Reagent is equilibrated to room temperature as well. After equilibration, an equal amount of CellTiter-Glo reagent is added to the cells (80 μl/well) with an electronic multichannel pipette. Plates are placed on a rocking platform for 15 minutes at room temperature. After incubation, the bottom of the plates is sealed with backing tape. Luminescence is measured with PHERAstar FSX (interval time 0.5 sec, gain 3000, focal height 15 mm) and exported as CSV file for analysis in Genedata screener.
Calculations and Data Reporting CD3 and PBS plates were analysed separately in Genedata Screener using Roche Normalization PCT_POS_CTRL with DMSO set as Neutral Control and 20 μM of the reference compound A1 set as Stimulator Control/100%.
For CD3 conditions EC50 and Emax of the fitted sigmoidal curve were reported. If no curve could be fitted, the EC50 was reported as blank field and the Emax was based on individual data points. […] Compounds which activate unstimulated cells (see IL2 measurements) or compounds which negatively affected viability were flagged.

[2] = test system: primary human T-cells; experiment: IL2 secretion measurements in CD3-stimulated T-cells; assay type: cell-based; conditions: CD3 condition; for Emax IL2 (% activation): 24 hours, 20 μM reference compound A1 = 100%; for EC50: Homo sapiens, T-cell, IL2 secretion after 24 hours, read-out: Tcell IL2 CD3 EC50
Experimental: As readouts for T-cell activation, 1L2 secretion after 24 hours and proliferation after 5 days was measured. Increases in 1L2 secretion and proliferation upon compound treatment were assessed as the % of the maximum of reference compound A1. WO 2016/139181 discloses reference compound A1 as example 70. As a counter screen and to make sure that no unwanted TCR-independent activation was triggered, PBS conditions were run for all compounds.
Expanded primary human T-cells were thawed and cultured in RPMI 1640 (Gibco, #61870-010)+5% human serum (HS, Sigma, #H3667)+1 mM Sodium Pyruvate (Gibco, #11360-039)+50 μM 2-mercaptoethanol (Gibco, #31350-010) and 1× Pen-Strep (Life Technologies, #15140122) medium at density of 2 Mio/ml for 3 hours in 5% CO2, 37° C. and 95% humidity. For coating of plates, […] or PBS++ with CD3 antibody (concentration depending on donor and determined by CD3 titrations) was added 100 μl/well to Poly-D Lysine coated 96-well plates. Plates were sealed and incubated at room temperature for 3 hours on a table-top rocking platform. After incubation, plates were washed once with PBS−− and filled with 40 μl/well culture medium only. Compounds were then added (see next section) to medium only plates. After 3 hours of culturing the T-cells, cells were filtered through a cell strainer (Miltenyi Biotech, #130-041-407), counted again and concentration was adjusted to 1.25 Mio/ml.
Cells were then seeded 80 μl/well to the 40 μl/well including dispensed compounds according to plate layout. By adding cells, compounds were further diluted 1:3, and resulting in 100 k cells/120 μl/well. After 24 hours 40 μl of supernatant was collected carefully from the top while not disturbing the cells and transferred into a round bottom 96 well plate. Collected and frozen supernatant was used for detection of IL2 using the IL-2 Human ProQuantum Immunoassay Kit (Invitrogen) or using the Human IL-2 ELISA Kit (Thermo Fisher).
Compounds were added in a 5 or 6 pt dose response with the Tecan D300e Digital Dispenser, all conditions 3 times more concentrated than the end-concentration, since cells are added afterwards (80 μl cells to 40 μl prepared medium with treatment). The DR was starting at 20 μM or 10 μM final top concentration and a dilution factor of 3.333. The positive control was the reference compound A1 that was added in a dose response as well, additionally to 3 wells of only 20 μM representing the positive stimulator control. All wells were normalized with DMSO to a final concentration of 0.6% (0.2% end-concentration).
The immunoassay is done following the manufacturer's manual (Invitrogen, #A35603). Additional information: For the immunoassay, MicroAmp™ EnduraPlate™ Optical 384-Well plates are used. Frozen supernatant is thawed and centrifuged for 5 minutes at 1000×g, both steps at 4° C. After centrifugation, required sample amount is taken from the top, and in a separate LightCycler V-bottom plate (working plate) diluted with assay dilution buffer, dilution factor depending on the PBS or CD3 condition but at least 1:3. IL-2 standard and blanks are prepared in the same V-bottom plate, standard with a range of […] (extended version). After preparation, 5 μl of sample dilutions or standard/blanks are transferred to the optical 384-well plate (assay plate) and the 10 μl reaction protocol is being followed. For measurement, the QuantStudio 12K Flex system is used. Raw data is extracted and IL-2 concentrations are calculated with the Thermo Fisher online app (apps.thermofisher.com/apps/proquantum).
ELISA is done following the manufacturer's manual (Thermo Fisher Scientific, #88-7025-88). Additional information: For the ELISA Nunc MaxiSorp 96 well plates are used. Frozen supernatant is thawed and centrifuged for 5 minutes at 1000×g, both steps at 4° C. […]

Structure (SMILES) | EC50 [1] [nM] | Emax IL2 (% activation) [2] [% activation] | EC50 [2] [nM] | Emax proliferation (% activation) [1] [% activation]
Cc1nnc(-c2cc3c(cc2F)S(=O)(=O)C[C@H](N)C(=O)N3Cc2ccc(Cl)cc2)nc1-c1ccccc1 [Example 13, (3R)-3-amino-5-[(4-chlorophenyl)methyl]-8-fluoro-7-(6-methyl-5-phenyl-1,2,4-triazin-3-yl)-1,1-dioxo-2,3-dihydro-1λ6,5-benzothiazepin-4-one] | 3640 | 48 | > 10000 | 
CC(C)Oc1cc(-c2cc3c(cc2F)S(=O)(=O)C[C@H](N)C(=O)N3Cc2ccc(Cl)cc2)cnn1 [Example 7, (3R)-3-amino-5-[(4-chlorophenyl)methyl]-8-fluoro-7-(6-isopropoxypyridazin-4-yl)-1,1-dioxo-2,3-dihydro-1λ6,5-benzothiazepin-4-one] | 172 | 49 | 3200 | 
COc1cncc(-c2cc3c(cc2F)S(=O)(=O)C[C@H](N)C(=O)N3Cc2ccc(Cl)cc2)c1 [Example 26, (3R)-3-amino-5-[(4-chlorophenyl)methyl]-8-fluoro-7-(5-methoxy-3-pyridyl)-1,1-dioxo-2,3-dihydro-1λ6,5-benzothiazepin-4-one] | 416 | 29 | > 10000 | 
CC(C)(C)c1cncc(-c2cc3c(cc2F)S(=O)(=O)C[C@H](N)C(=O)N3Cc2ccc(-c3noc(C(F)(F)F)n3)cc2)c1 [Example 22, (3R)-3-amino-7-(5-tert-butyl-3-pyridyl)-8-fluoro-1,1-diketo-5-[4-[5-(trifluoromethyl)-1,2,4-oxadiazol-3-yl]benzyl]-2,3-dihydro-1λ6,5-benzothiazepin-4-one] | 92 | 458 | 811 | 228
N[C@H]1CS(=O)(=O)c2cc(F)c(-c3cc(C(F)(F)F)ccn3)cc2N(Cc2ccc(Cl)cc2)C1=O [Example 8, (3R)-3-amino-5-[(4-chlorophenyl)methyl]-8-fluoro-1,1-dioxo-7-[4-(trifluoromethyl)-2-pyridyl]-2,3-dihydro-1λ6,5-benzothiazepin-4-one] | 1310 | 37 | > 20000 | 100
CC(C)(C)c1ccnc(-c2cc3c(cc2F)S(=O)(=O)C[C@H](N)C(=O)N3Cc2ccc(Cl)cc2)c1 [Example 1, (3R)-3-amino-7-(4-tert-butyl-2-pyridyl)-5-[(4-chlorophenyl)methyl]-8-fluoro-1,1-dioxo-2,3-dihydro-1λ6,5-benzothiazepin-4-one] | 1720 | 56 | 7380 | 
CC(C)(C)c1cnc(-c2cc3c(cc2F)S(=O)(=O)C[C@H](N)C(=O)N3Cc2ccc(Cl)cc2)nn1 [Example 12, (3R)-3-amino-7-(6-tert-butyl-1,2,4-triazin-3-yl)-5-[(4-chlorophenyl)methyl]-8-fluoro-1,1-dioxo-2,3-dihydro-1λ6,5-benzothiazepin-4-one] | 1670 | 77 | 2780 | 
N[C@H]1CS(=O)(=O)c2cc(F)c(-c3cccc(C(F)(F)F)n3)cc2N(Cc2ccc(Cl)cc2)C1=O [Example 9, (3R)-3-amino-5-[(4-chlorophenyl)methyl]-8-fluoro-1,1-dioxo-7-[6-(trifluoromethyl)-2-pyridyl]-2,3-dihydro-1λ6,5-benzothiazepin-4-one] | 6690 |  |  | 76
N[C@H]1CS(=O)(=O)c2cc(F)c(-c3cnnc(C4(C(F)(F)F)CC4)c3)cc2N(Cc2ccc(-c3noc(C(F)(F)F)n3)cc2)C1=O [Example 37, (3R)-3-amino-8-fluoro-1,1-dioxo-7-[6-[1-(trifluoromethyl)cyclopropyl]pyridazin-4-yl]-5-[[4-[5-(trifluoromethyl)-1,2,4-oxadiazol-3-yl]phenyl]methyl]-2,3-dihydro-1λ6,5-benzothiazepin-4-one] | 729 |  |  | 147
